Experimental findings from patent publication US20150018403A1, “FLUORENE-AMIDE COMPOUNDS AND PHARMACEUTICAL USE THEREOF” (JAPAN TOBACCO INC., priority 2013, published 2015) are described below.

As a reminder, the IC50 is the concentration that gives 50% inhibition. Lower therefore signals greater potency in that assay.

For this assay, the target named is T1, human PDHK1 (hPDHK1) (Homo sapiens, UniProt Q15118).
T1 construct: made in house; host or cells: Escherichia coli BL21(DE3), pET17b vector
The assay is described as follows: Inhibitory action of PDHK1 activity in vitro (residual PDH activity after kinase reaction). Format: biochemical. Conditions: PDH/hPDHK1 complex, 45 min kinase reaction at room temperature. The procedure:
The inhibitory action of PDHK activity was assessed indirectly by measuring the residual PDH activity after kinase reaction in the presence of a test compound.
In the case of human PDHK1 (hPDHK1, Genbank Accession No. L42450.1), a 1.3 kbp fragment encoding this protein was isolated from human liver cDNA by polymerase chain reaction (PCR). Modified hPDHK1 cDNA wherein FLAG-Tag sequence was added to the N terminus was prepared by PCR and cloned into a vector (pET17b-Novagen). The recombinant construct was transformed into Escherichia coli (DH5α-TOYOBO). The recombinant clones were identified, and plasmid DNA was isolated and subjected to the DNA sequence analysis. One clone which had the expected nucleic acid sequence was selected for expression work. […]
Then, 10 μL of substrates (5 mmol/L sodium pyruvate, 5 mmol/L Coenzyme A, 12 mmol/L NAD, 5 mmol/L thiamin pyrophosphate, diluted with buffer) were added. The mixture was incubated at room temperature for 90 min, and the residual PDH activity was measured.
2.5 The absorbance at 340 nm before and after PDH reaction was measured using a microplate reader to detect NADH produced by the PDH reaction. The hPDHK1 inhibition rate (%) of the test compound was calculated from the formula [{(PDH activity of the test compound−PDH activity of control)/PDH activity of blank−PDH activity of control)}×100].

SMILES strings stand for the structures.

T1 sequence (Q15118 29-436): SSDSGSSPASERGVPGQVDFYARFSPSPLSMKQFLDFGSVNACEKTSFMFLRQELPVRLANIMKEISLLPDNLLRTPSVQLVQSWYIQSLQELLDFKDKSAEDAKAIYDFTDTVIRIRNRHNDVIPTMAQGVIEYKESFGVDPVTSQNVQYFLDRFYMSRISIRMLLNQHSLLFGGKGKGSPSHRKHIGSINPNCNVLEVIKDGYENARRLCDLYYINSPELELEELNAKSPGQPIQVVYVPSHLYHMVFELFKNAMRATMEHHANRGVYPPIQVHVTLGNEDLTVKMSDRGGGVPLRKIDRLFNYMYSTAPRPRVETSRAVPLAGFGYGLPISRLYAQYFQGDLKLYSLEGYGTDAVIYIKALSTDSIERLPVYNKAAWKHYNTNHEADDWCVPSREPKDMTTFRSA

`C[C@H](O)COc1cc(-c2cnn(C(C)(C)C(N)=O)c2)c2c(c1)[C@@](O)(C(F)(F)F)c1ccccc1-2` [compound (2), 2-(4-{(9R)-9-hydroxy-2-[(2S)-2-hydroxypropoxy]-9-(trifluoromethyl)-9H-fluoren-4-yl}-1H-pyrazol-1-yl)-2-methylpropanamide] yielded an IC50 of 5.1 nM.
